Data on one molecule can be found in publication PMC9284491 (Nature Communications, 2022).

The subject of one data set is ER. The arrangement: method as in PMID 31721572. To be noted: in vitro, preclinical, cited from earlier work.
Data set [1] in a line: Dose-limiting toxicities, MTD and RP2D in dose escalation. It counts as in vivo. The method, then:
During dose escalation, treatment was initiated on day 1 in the fasting state in cohorts starting at a dose of 20 mg orally QD, escalating in subsequent cohorts to planned doses of 50–600 mg. For all cohorts, treatment was omitted on day 2, was administered on day 3 after a moderate fat breakfast, and was administered from day 4 in the fasting state. Dose escalation proceeded based on the occurrence of DLT together with target saturation by ^18F-FES PET/CT scans[45] and pharmacokinetic parameters during the first 28-day cycle, and according to a 3 + 3 design. […] During dose expansion, patients were treated at the RP2D. Patients were treated until disease progression, unacceptable toxicity, withdrawal of patient consent, or other reasons determined by the investigator (poor compliance with the protocol or intercurrent illness). […]
Analysis populations and associated statistical methods. […] Results were analyzed using descriptive statistics. […]

Structures are written as SMILES.

Take `O=C(O)c1ccc2c(c1)CCCC(c1ccc(Cl)cc1Cl)=C2c1ccc(O[C@H]2CCN(CCCF)C2)cc1` [amcenestrant, 6-(2,4-Dichlorophenyl)−5-[4-[(3S)−1-(3-fluoropropyl)pyrrolidin-3-yl]oxyphenyl]−8,9-dihydro-7H-benzo[7]annulene-2-carboxylic acid]: the ER degradation efficacy in the data set on ER is 98%. Further, the EC50 in the data set with ER (read-out: ER degradation potency) is 0.2 nM. In addition, the “maximum tolerated dose (MTD)” value in data set [1] (Part A, 20-600 mg QD) was “not reached”. Moreover, the dose-limiting toxicities entry in data set [1] (in vivo) was “No dose-limiting toxicities occurred”.
